Tested on: HIV broadly neutralizing antibody 2G12
Experiment: STD-NMR (Saturation Transfer Difference NMR) binding analysis with 2G12 IgG
Conditions: for mannose unit showing greatest saturation transfer (STD): pH 6.7 deuterated phosphate buffered saline, saturation time 3 s; for recognition by neutralizing HIV antibody 2G12: summary in Discussion, contacts similar to natural oligomannose
Procedure: With these S-Man3 and S-Man4 derivatives in hand, their recognition by HIV broadly neutralizing antibody 2G12 was studied. 2G12 binds primarily to the linear trimannose (D1) arm of Man9GlcNAc2. […] The temperature was 298 K for S-Man3 14 and 293 K for S-Man4 21 in order to move the HDO peak to avoid covering an anomeric resonance. The experiments were performed without suppression of the residual HDO signal. On-resonance frequencies of 0.86 ppm δ (protein aliphatic) and 7 ppm δ (protein aromatic) were applied for S-Man3 14 and […] S-Man4 21, respectively, in both cases with a saturation time of 3 s and an off-resonance frequency of 40 ppm δ.
In the case of the Man4 derivative, negligible STD is observed for the reducing-terminal mannose unit.

[1] = 25 μM 2G12 IgG, 200:1 sugar:antibody

| SMILES | STD observed for the reducing-terminal mannose unit (25 μM 2G12 IgG, 200:1 sugar:antibody, 293 K) | mannose unit showing greatest saturation transfer (STD) [1] | recognition by neutralizing HIV antibody 2G12 |
| --- | --- | --- | --- |
| [N-]=[N+]=NC1CCC(O[C@@H]2OC(CO)[C@@H](O)[C@H](O[C@H]3OC(CO)[C@@H](O)[C@H](O)C3O[C@H]3OC(CO)[C@@H](O)[C@H](O)C3S[C@H]3OC(CO)[C@@H](O)[C@H](O)C3O)C2O)CC1 (stereo partly drawn) [compound 21, Trans-azidocyclohexyl-3-O-[{α-D-mannopyranosyl-(1→2)}-2-O-{α-D-mannopyranosyl-(1→2)}-2-S-{α-D-mannopyranosyl-(1→2)}]-β-D-mannopyranoside] | negligible | greatest saturation transfer is seen for the non-reducing mannose unit | recognized |
| NCCO[C@H]1O[C@H](CO)[C@@H](O)[C@H](O)[C@@H]1S[C@H]1O[C@H](CO)[C@@H](O)[C@H](O)[C@@H]1O[C@H]1O[C@H](CO)[C@@H](O)[C@H](O)[C@@H]1O [compound 14, 2-aminoethyl-[α-D-mannopyranosyl-(1→2)-2-S-{α-D-mannopyranosyl-(1→2)}]-α-D-mannopyranoside] |  | greatest saturation transfer is seen for the non-reducing mannose unit | recognized |

Source: US20240182603A1, “SULFUR-S[…] TO STABILIZE OLIGOSACCHARIDE” (Brandeis University, priority 2021, published 2024)
